Patent EP1988080A1, “Insecticidal substituted 2-aminoindanes” (Bayer CropScience AG, priority 2007, dated 2008)

What was measured:
Myzus persicae [1] = assay: Myzus persicae-test (Spray application); type: in vivo; conditions: application rate of 500 g/ha; spray on Chinese cabbage leaf-disks, all instars
Experimental: Myzus persicae-test (Spray application)
(§1) To produce a suitable preparation of active compound, 1 part by weight of active compound is mixed with the stated amount of solvent and emulsifier, and the concentrate is diluted with emulsifier-containing water to the desired concentration.
Chinese cabbage (Brassica pekinensis) leaf-disks infected with all instars of the green peach aphid (Myzus persicae), are sprayed with a preparation of the active ingredient at the desired concentration.
(§2) After the specified period of time, mortality in % is determined. 100 % means that all aphids have been killed; o % means that none of the […] have been killed.

Myzus persicae [2] = assay: Myzus-test (oral); type: in vivo; conditions: oral (suction)
Experimental: as §1
Hollow-ware are located with all instars of the green peach aphid (Myzus persicae). The treatement is carried out by suction of the preparation of active compound of the desired concentration.
as §2

Tetranychus urticae = assay: Tetranychus-test, OP-resistant (spray application); type: in vivo; conditions: spray on French bean
Experimental: Tetranychus-test, OP-resistant (spray application)
as §1
French bean (Phaseolus vulgaris) which are heavily infested with all stages of the two spotted spidermite (Tetranychus urticae), are sprayed with a preparation of the active ingredient at the desired concentration.
(§3) After the specified period of time, mortality in % is determined. 100 % means that all spider mites have been killed; o % means that none of the […] have been killed.

[3] = logP determination (PhysData, logP^1); conditions: for logP^1: stated in preparation examples; for PhysData (logP (HCOOH)): HPLC gradient method, acetonitrile/0.1% HCOOH, EEC-Directive 79/831, Annex V.A8
Boophilus microplus = assay: Boophilus microplus-test (injection); type: in vivo; conditions: application rate of 20 µg/animal; injection in the abdomen
Experimental: Boophilus microplus-test (injektion)
as §1
The solution of the active compound is injected in the abdomen (Boophilus microplus); the animals are transferred into a cup and stayed in a rooming with an air condition.
After the specified period of time, the efficiany mortality in % is determined. 100 % means that no tick has lay fertile eggs.

Phaedon cochleariae = assay: Phaedon-test (spray application); type: in vivo; conditions: application rate of 500 g/ha; spray on Chinese cabbage leaf-disks, larvae
Experimental: Phaedon-test (spray application)
as §1
Chinese cabage (Brassica pekinesis) leafs-disks are treated by being sprayed with the preparation of the active compound of the desired concentration nd are, after drying, infested with mustard beetle larvae (Phaedon cochleariae).
as §3

[4] = Table I-1, cells marked (A) are 1H-NMR, not logP

SMILES	activity (mortality in %) (Myzus persicae [1]) [%]	PhysData (logP^1) [3, 4]	chromatographic logP (physchem)	further results
c1ccc2c(c1)CC(N=C1NCCO1)C2 [1-1, 2-[2-(2,3-dihydro-1H-inden)-amino]-4,5-dihydrooxazole]	≥ 80	0.81	–	activity (mortality in %) (Myzus persicae [2]; application rate of 20 ppm): ≥ 80%; activity (mortality in %) (Tetranychus urticae; application rate of 100 g/ha): ≥ 80%
CNC(=S)N1CCOC1=NC1Cc2ccccc2C1 [1-2]	≥ 80	2.36	–	activity (mortality in %) (Myzus persicae [2]; application rate of 20 ppm): ≥ 80%; logP^1 [3]: 2.36
CCNC(=S)N1CCOC1=NC1Cc2ccccc2C1 [1-5]	≥ 80	3.46	–	–
FC(F)(F)CNC(=S)N1CCOC1=NC1Cc2ccccc2C1 [1-6]	≥ 80	4.28	–	–
COCCNC(=S)N1CCOC1=NC1Cc2ccccc2C1 [1-7]	≥ 80	–	3.25	activity (mortality in %) (Tetranychus urticae; application rate of 500 g/ha): ≥ 80%; efficiency (100 % means that no tick has lay fertile eggs) (Boophilus microplus): ≥ 80%
COC(=O)CNC(=S)N1CCOC1=NC1Cc2ccccc2C1 [1-8]	–	3.20	–	activity (mortality in %) (Myzus persicae [2]; application rate of 20 ppm): ≥ 80%
CC(=O)NC(=S)N1CCOC1=NC1Cc2ccccc2C1 [1-10]	–	2.53	–	–
O=C(NC(=S)N1CCOC1=NC1Cc2ccccc2C1)c1ccccc1 [1-11]	–	3.11	–	–
COC(CNC(=S)N1CCOC1=NC1Cc2ccccc2C1)OC [1-12]	≥ 80	–	3.6	activity (mortality in %) (Phaedon cochleariae): ≥ 80%
CCCC(C)NC(=S)N1CCOC1=NC1Cc2ccccc2C1 (centres unmarked) [1-13]	≥ 80	–	5	activity (mortality in %) (Phaedon cochleariae): ≥ 80%
CCC(CC)NC(=S)N1CCOC1=NC1Cc2ccccc2C1 [1-14]	≥ 80	4.90	–	–
S=C(NCC1CC1)N1CCOC1=NC1Cc2ccccc2C1 [1-16]	≥ 80	3.24	–	–
C=CCNC(=S)N1CCOC1=NC1Cc2ccccc2C1 [1-17]	≥ 80	3.75	–	–
CCCNC(=S)N1CCOC1=NC1Cc2ccccc2C1 [1-18]	≥ 80	3.94	–	–
CCCCNC(=S)N1CCOC1=NC1Cc2ccccc2C1 [1-19]	≥ 80	4.46	–	–
CC(NC(=S)N1CCOC1=NC1Cc2ccccc2C1)C(F)(F)F (centres unmarked) [1-20]	≥ 80	4.62	–	–
CC(C)CNC(=S)N1CCOC1=NC1Cc2ccccc2C1 [1-21]	≥ 80	4.51	–	–
COC(=O)CCNC(=S)N1CCOC1=NC1Cc2ccccc2C1 [1-22]	≥ 80	3.2	–	–
CCOC(=O)CC(C)NC(=S)N1CCOC1=NC1Cc2ccccc2C1 (centres unmarked) [1-23]	–	4.0	–	activity (mortality in %) (Phaedon cochleariae): ≥ 80%

SMILES	activity (mortality in %) (Myzus persicae [1]) [%]	PhysData (logP^1) [3, 4]	chromatographic logP (physchem)	further results
COC(=O)CCCNC(=S)N1CCOC1=NC1Cc2ccccc2C1 [1-24]	–	3.6	–	–
COC(=O)C(NC(=S)N1CCOC1=NC1Cc2ccccc2C1)C(C)C (centres unmarked) [1-25]	≥ 80	4.4	–	–
CCOC(=O)C(C)NC(=S)N1CCOC1=NC1Cc2ccccc2C1 (centres unmarked) [1-26]	≥ 80	4.2	–	–
CCC(NC(=S)N1CCOC1=NC1Cc2ccccc2C1)C(=O)OC (centres unmarked) [1-27]	≥ 80	4.0	–	–
S=C(NCC1CCCO1)N1CCOC1=NC1Cc2ccccc2C1 (centres unmarked) [1-28]	≥ 80	–	3.6	–
FC(F)(F)C1CCC(NC(=S)N2CCOC2=NC2Cc3ccccc3C2)CC1 (centres unmarked) [1-29]	–	–	5.1	–
CC(C)NC(=S)N1CCOC1=NC1Cc2ccccc2C1 [1-30]	≥ 80	4.0	–	–
S=C(NC1CC1)N1CCOC1=NC1Cc2ccccc2C1 [1-31]	–	3.5	–	–
S=C(NC1CCCC1)N1CCOC1=NC1Cc2ccccc2C1 [1-32]	≥ 80	–	4.74	–
FC(F)(F)C1CCCC(NC(=S)N2CCOC2=NC2Cc3ccccc3C2)C1 (centres unmarked) [1-33]	–	–	4.7	–
S=C(NCc1ccccc1)N1CCOC1=NC1Cc2ccccc2C1 [1-34]	–	5.2	–	–
CC(NC(=S)N1CCOC1=NC1Cc2ccccc2C1)c1ccccc1 (centres unmarked) [1-35]	–	4.4	–	–
S=C(NCc1ccc(Cl)cc1)N1CCOC1=NC1Cc2ccccc2C1 [1-36]	≥ 80	–	4.9	–
S=C(NCc1cccc(Cl)c1)N1CCOC1=NC1Cc2ccccc2C1 [1-37]	≥ 80	–	4.9	–
S=C(NCc1ccccc1Cl)N1CCOC1=NC1Cc2ccccc2C1 [1-38]	–	–	4.9	–
S=C(NCc1ccc2c(c1)OCO2)N1CCOC1=NC1Cc2ccccc2C1 [1-39]	≥ 80	–	4.1	–
S=C(NCCc1ccccc1)N1CCOC1=NC1Cc2ccccc2C1 [1-40]	–	4.6	–	–
S=C(NCCc1ccc(Cl)cc1)N1CCOC1=NC1Cc2ccccc2C1 [1-41]	–	–	5.1	–
S=C(NCc1cccnc1)N1CCOC1=NC1Cc2ccccc2C1 [1-42]	≥ 80	–	2	–

SMILES	activity (mortality in %) (Myzus persicae [1]) [%]	PhysData (logP^1) [3, 4]	chromatographic logP (physchem)	further results
CC(NC(=S)N1CCOC1=NC1Cc2ccccc2C1)c1ccc(Cl)cc1 (centres unmarked) [1-43]	–	–	5.3	–
CC(NC(=S)N1CCOC1=NC1Cc2ccccc2C1)c1ccccc1Cl (centres unmarked) [1-44]	–	–	5.2	–
CC(NC(=S)N1CCOC1=NC1Cc2ccccc2C1)c1cccc(Cl)c1 (centres unmarked) [1-45]	≥ 80	–	5.3	–
Cc1ccc(CNC(=S)N2CCOC2=NC2Cc3ccccc3C2)cc1 [1-46]	–	–	4.8	–
Fc1ccc(CNC(=S)N2CCOC2=NC2Cc3ccccc3C2)cc1 [1-47]	–	–	4.4	–
COc1ccc(CNC(=S)N2CCOC2=NC2Cc3ccccc3C2)cc1OC [1-48]	–	–	3.7	–
S=C(NCc1ccc(Cl)cc1Cl)N1CCOC1=NC1Cc2ccccc2C1 [1-49]	–	–	5.7	–
S=C(Nc1ccccn1)N1CCOC1=NC1Cc2ccccc2C1 [1-50]	≥ 80	–	1.6	activity (mortality in %) (Phaedon cochleariae): ≥ 80%
Fc1ccc2c(c1)CC(N=C1NCCO1)C2 (centres unmarked) [1-64]	–	0.73	–	–
S=C(NCCc1cccc(Cl)c1)N1CCOC1=NC1Cc2ccccc2C1 [1-120]	–	–	5.1	–
c1ccc2c(c1)CC(NC1=NCCS1)C2 [2-1, 2-[2-(2,3-dihydro-1H-inden)-amino]-4,5-dihydrothiazole]	–	–	–	PhysData (logP^1) ([3]; Table I-2): 0.66
CNC(=S)N1CCSC1=NC1Cc2ccccc2C1 [2-2]	–	–	–	PhysData (logP^1) ([3]; Table I-2): 4.05
FC(F)(F)CNC(=S)N1CCSC1=NC1Cc2ccccc2C1 [2-6]	–	–	–	PhysData (logP^1) ([3]; Table I-2): 4.80; logP^1 [3]: 4.8
COCCNC(=S)N1CCSC1=NC1Cc2ccccc2C1 [2-7]	–	–	–	PhysData (logP^1) ([3]; Table I-2): 4.11
CCOC(=O)CNC(=S)N1CCSC1=NC1Cc2ccccc2C1 [2-8]	–	–	–	PhysData (logP^1) ([3]; Table I-2): 4.41
c1ccc2c(c1)CC(NC1=NCCN1)C2 [3-1]	–	–	–	PhysData (logP (HCOOH)) ([3]; Table I-3): 0.52
COCCNC(=S)N1CCNC1=NC1Cc2ccccc2C1 [3-7]	–	–	–	PhysData (logP (HCOOH)) ([3]; Table I-3): 1.46; logP^1 [3]: 1.46
O=C(NCCCl)NC1Cc2ccccc2C1 [4-1]	≥ 80	–	–	activity (mortality in %) (Myzus persicae [2]; application rate of 100 ppm): ≥ 80%; PhysData (logP (HCOOH)) ([3]; Table 1-4): 1.92
